Data taken from patent US4719297A, “Acylphosphine compounds and their use as photoinitiators” (priority 1981, dated 1988).
Where two headings read alike, the source gives them in different places.

Key:
[1] = Hardening activity of UP resin A under UV light, temperature/time curve (Table 2); settings: 0.2% compound
Method: (§1) To measure the hardening activity, the temperature curve for the unsaturated polyester resin (UP resin) was recorded during exposure to UV light. […] To avoid heat losses during the exposure to UV light, the lid was embedded in rigid expanded polyurethane foam. The UV light source used comprised 5 fluorescent tubes (TLAK 40 W/05 from Philips) side by side, at a distance of 8.5 cm from the UP resin surface.
(§2) The hardening time HT25° C.-T.sbsb.max and the maximum hardening temperature Tmax achieved were obtained, as characteristic parameters for the hardening activity, from the recorded temperature/time curves. The hardening time is the interval in which the sample temperature increases from 25° C. to Tmax.
(§3) The Examples and Comparative Examples were carried out using the following unsaturated polyester resins:
Resin A was a 65% strength solution, in styrene, of an unsaturated polyester of maleic acid, o-phthalic acid, ethylene glycol and propylene 1,2-glycol in the molar ratio of 1:2:2.3:0.70, the solution being stabilized with 0.01% of hydroquinone.
(§4) The hardening activity of the novel compounds 1 to 16 (cf. Table 1) was compared with the properties of the following compounds: […]

[2] = Hardening activity in UP resins, overall comparison
Method: as §1, §2, §3, §4

[3] = Minimum exposure time for faultless reproduction of the 3% tonality on photopolymerizable printing plate (Table 7); settings: 2 parts photoinitiator; UV about 3,300 μW/cm^2
Method: 60 parts by weight of a 1:1:1 copolyamide consisting of PA-6, PA-6.6 and PA-6.13, 30 parts by weight of ethylene glycol bis-(N-methylolacrylamide) ether, 10 parts by weight of benzenesulfonic acid N-(n-butyl)-amide, 150 parts by weight of methanol, 20 parts by weight of water, 0.02 part by weight of a chromium complex dye (CI No. 12,195), 0.3 part by weight of potassium N-nitrosocyclohexylhydroxylamine and 2 parts by weight of the photoinitiator given in Table 7 were dissolved at about 70° C. The photopolymerizable material was brought to a solids content of about 65% by distilling off part of the solvent and was then cast, at 60° C., on to a strip of steel sheet provided with an adhesive, and drying was effected in a drying oven for about 2 hours at 80° C. The resulting photopolymerizable printing plate contained a 0.5 mm thick layer with a solids content of about 95%.
Using a test negative which had, inter alia, 54 screen lines, per centimeter, of 3% tonality, the plate was exposed to a UV light intensity of about 3,300 μW/cm^2 on a flat-plate exposure unit equipped with superactinic fluorescent tubes. The unexposed parts of the plate which were protected from the UV light by the opaque image elements of the negative were then washed out in a spray washer for 5 minutes at 30° C. and under a spray pressure of 5 bar, using an ethanol/water mixture containing 80% of ethanol. The plate was thereafter dried for 6 minutes at 110° C. The minimum exposure time required for faultless reproduction of the 3% tonality was measured, and the results for various photoinitiators are summarized in Table 7.

[4] = Hardening activity of UP resin B under UV light, temperature/time curve (Table 2); settings: 0.2% compound
Method: as §1, §2, §3
Resin B was a 67% strength solution, in styrene, of an unsaturated polyester of maleic acid, tetrahydrophthalic acid and diethylene glycol in the molar ratio of 1:0.5:1.5, the solution being stabilized with 0.01% of hydroquinone.
as §4

[5] = Hardening activity of UP resin C under UV light, temperature/time curve (Table 2); settings: 0.2% compound
Method: as §1, §2, §3
Resin C was a 66% strength solution, in styrene, of an unsaturated polyester of maleic acid, o-phthalic acid and propylene 1,2-glycol in the molar ratio of 1:0.5:1.5, the solution being stabilized with 0.01% of hydroquinone.
as §4

[6] = format: physicochemical; settings: 80° C., closed ampoule
Method: 294 parts of partially hydrolyzed polyvinyl acetate (degree of hydrolysis 82 mole %, average degree of polymerization 500) were dissolved in 294 parts of demineralized water at 90° C. by stirring the mixture for several hours. The solution was cooled to 70° C., and therafter 20 parts of 1,1,1-trimethylolpropane triacrylate, 1,0 part of 2,6-di-tert.-butyl-p-cresol and the amount of photoinitiator given in table 6, dissolved in 230 parts of 2-hydroxyethyl methacrylate, were added, with stirring. The homogeneous viscous solution was filtered, and dehydrated and degassed under reduced pressure. A 550 μm thick, nontacky layer was obtained by applying the solution onto steel sheet provided with an adhesive, and drying the layer for 24 hours at room temperature. The printing plate was pre-exposed for 2 seconds and thereafter exposed inagewise, through a negative, to light from a commercial 5 kW exposure unit for the times given in table 6.
The thermal stability of the photosensitive solutions was determined by storing a sample in a closed ampoule at 80° C. In comparison with compound V, the novel photoinitiators improved the stability of the photosensitive mixture by a factor of 2 (see Table 6), with otherwise very similar behavior.

[7] = Shelf life of resins containing the compounds, overall comparison; format: physicochemical; settings: Table 3, in words
Method: (§5) To test the shelf life, 6.6 ml of each of the UP resins A, B and C (cf. Example 5) with an initiator content of 0.2% were introduced into brown sample bottles, and the closed bottles were stored at 60° C. At intervals of about 12 hours, the bottles were turned to determine whether gel particles had formed. As a measure of the shelf life, Table 3 gives the maximum storage time at which gel particles were still not observed.
(§6) In addition to the comparative compounds I, II and III, compound V below was also tested: V 2,4,6-trimethylbenzoyldiphenylphosphine oxide as described in U.S. Pat. No. 4,265,723.

[8] = Photopolymerization of monomer emulsion, properties of resulting polymer dispersions (Table 5); settings: for Fikentscher K value / Residual monomers, ethyl acrylate / Residual monomers, methyl acrylate / Solids content: 60 min exposure
Method: A monomer emulsion was prepared from 50 parts of methyl acrylate, 50 parts of ethyl acrylate, 1.3 parts of a 40% strength C15 -paraffin sulfonate, 1.3 parts of an adduct of isooctylphenol with 25 units of ethylene oxide (20% strength) and 210 parts of water in a conventional mixing unit.
This emulsion was introduced into a 1 l glass flask provided with an internal thermometer and a stirrer, and was freed from oxygen by twice evacuating the flask and gassing the emulsion with nitrogen. X parts of the photoinitiator in 6.7 parts of water were added, and the reaction vessel was then exposed for 60 minutes to light from a high pressure mercury vapor lamp of Type HQL/R 400 W from Osram, located 30 cm above the vessel. The beginning of polymerization was evident from an increase in the temperature. The amounts of photoinitiator employed and the properties of the resulting polymer dispersions are summerized in Table 5, photoinitiator 4 (cf. Table 1) being compared with photoinitiator VI (described in U.S. Pat. No. 4.257,859).

[9] = Shelf life of UP resin A containing a photoinitiator, stored at 60° C. (Table 3); format: physicochemical; settings: 0.2% initiator, dark
Method: as §5, §6
(§7) The numbering scheme of the compounds in Table 3 is based on that of Table 1.

[10] = Shelf life of UP resin B containing a photoinitiator, stored at 60° C. (Table 3); format: physicochemical; settings: 0.2% initiator, dark
Method: as §5, §6, §7

[11] = Shelf life of UP resin C containing a photoinitiator, stored at 60° C. (Table 3); format: physicochemical; settings: 0.2% initiator, dark
Method: as §5, §6, §7

[12] = Hardening rate of UV-exposed finish by Konig pendulum method (DIN 53,157) (Table 4); settings: for Damping of pendulum: 2 parts photoinitiator
Method: An unsaturated polyester was prepared by esterifying 143 parts of tetrahydrophthalic anhydride and 175 parts of maleic anhydride with 260 parts of diethylene glycol. 0.01% of hydroquinone was added, and thereafter a 64% strength solution of the polyester in styrene was prepared (solution D).
For the UV hardening experiments, 10 parts of styrene and 2 parts of the photoinitiator were added to 100 parts of solution D, and the finish was applied to photographic paper on a hardboard base by means of a film spreader (slotwidth 200 μm)
The film was dried in air for about 1 minute and then exposed to light from a 30 watt high pressure mercury vapor lamp of 1 cm arc length (Philips HTQ 7) located 15 cm above the object.
The hardening rate was determined by the Konig pendulum method (DIN 53,157), and is given in Table 4 together with the color measurements carried out on the hardened films.
The numbering scheme for the photoinitiators is based on that of Table 1 and Example 6.

Row | SMILES | hardening time HT 25°-Tmax [1] | maximum hardening temperature Tmax [1] | Minimum exposure time required for reproducing the 3% tonality [3] | hardening time HT 25°-Tmax [4] | maximum hardening temperature Tmax [4] | hardening time HT 25°-Tmax [5] | maximum hardening temperature Tmax [5] | Shelf life [9] | Shelf life [10] | Shelf life [11] | other results
1 | COP(=O)([O-])C(C)=O.[Na+] [IV, monosodium monomethylacetylphosphonate, reference compound] | 13/15 | 30 °C |  |  |  |  |  |  |  |  | hardening outcome (footnote to Tmax) [1]: not hardened; suitability for photohardening ([2]; Table 2, in words): unsuitable for photohardening
2 | COC(OC)(C(=O)c1ccccc1)c1ccccc1 [III, benzil dimethyl ketal, reference compound] | 8/00 | 114 °C | 165 s | 9/45 | 119 °C | 8/30 | 122 °C |  |  |  | 
3 | Cc1cc(C)c(C(=O)P(=O)([O-])c2ccccc2)c(C)c1.[Na+] [Compound 4, Sodium 2,4,6-trimethylbenzoylphenylphosphinate] | 5/53 | 117 °C | 115 s | 4/37 | 125 °C | 5/23 | 122 °C | 190 h |  |  | Stability ([6]; 6 parts of compound): 34 h; shelf life of resins compared with compounds II, III and V [7]: substantially superior; shelf life of resins compared with resins containing I [7]: not significantly different; Fikentscher K value ([8]; 0.04 parts X employed): 156.8; Residual monomers, ethyl acrylate ([8]; 0.04 parts X employed): 0.019%; Residual monomers, methyl acrylate ([8]; 0.04 parts X employed): 0.051%; Solids content ([8]; 0.04 parts X employed): 31.3%; Fikentscher K value ([8]; 1.7 parts X employed): 146.6; Residual monomers, ethyl acrylate ([8]; 1.7 parts X employed): < 0.005%; Residual monomers, methyl acrylate ([8]; 1.7 parts X employed): 0.005%; Solids content ([8]; 1.7 parts X employed): 31.4%; activity compared with photoinitiator VI ([8]; same K value of dispersions, in words): higher activity; content of residual monomers compared with photoinitiator VI ([8]; same starting concentration, in words): substantially lower content of residual monomers; initiation of photopolymerization at very low starting concentrations ([8]; very low starting concentrations, in words): permits photopolymerization even at very low starting concentrations
4 | Cc1cc(C)c(C(=O)P(=O)(O)c2ccccc2)c(C)c1 [Compound 14] | 5/30 | 122 °C | 110 s | 4/53 | 118 °C | 5/38 | 123 °C | 180 h | 155 h | 204 h | shelf life of resins compared with compounds II, III and V [7]: substantially superior; shelf life of resins compared with resins containing I [7]: not significantly different
5 | Cc1cc(C)c(C(=O)P(=O)(O)c2ccccc2)c(C)c1 [Compound 12, Methyldiethanolammonium 2,4,6-trimethylbenzoylphenylphosphinate] | 6/15 | 116 °C |  | 5/08 | 129 °C | 5/23 | 123 °C |  |  |  | Stability ([6]; 7 parts of compound): 28 h; hardening activity compared with compound V ([12]; Table 4, in words): substantially more active hardener; Damping of pendulum ([12]; exposure time 5 s): 71; Damping of pendulum ([12]; exposure time 10 s): 92; Damping of pendulum ([12]; exposure time 15 s): 112; Damping of pendulum ([12]; exposure time 20 s): 122; Damping of pendulum ([12]; exposure time 25 s): 130
6 | COP(=O)(C(=O)c1c(C)cc(C)cc1C)c1ccccc1 (stereo not drawn) [I, methyl 2,4,6-trimethybenzoylphenylphosphinate, reference compound] | 7/45 | 114 °C |  | 5/23 | 127 °C | 6/53 | 123 °C | 180 h | 155 h | 180 h | hardening activity compared with the novel compounds ([2]; see Example 5, in words): substantially less active hardener
7 | Cc1cc(C)c(C(=O)P(=O)(c2ccccc2)c2ccccc2)c(C)c1 [V, 2,4,6-trimethylbenzoyldiphenylphosphine oxide, reference compound] |  |  | 190 s |  |  |  |  | 140 h | 140 h | 120 h | Stability ([6]; 4 parts of compound): 15 h; Damping of pendulum ([12]; exposure time 5 s): 43; Damping of pendulum ([12]; exposure time 10 s): 66; Damping of pendulum ([12]; exposure time 15 s): 84; Damping of pendulum ([12]; exposure time 20 s): 102; Damping of pendulum ([12]; exposure time 25 s): 112
